The record followed here is patent US20020001652A1, “Process for making granulated N-[N- (3, 3-dimethylbutyl) -L-alpha -aspartyl] -L- phenylalanine 1-methyl ester” (priority 2000, published 2002).

Data set [1] is described as follows: HPLC analysis of neotame degradation during granulation. The format is physicochemical. The settings on record: roller compaction, cone mill, sieving. From the text: A lab scale TF-Mini roller compactor (Vector Corp., Marion, Iowa) was used in conjunction with a cone mill and a Ro-Tap testing sieve shaker (model B, CE Tyler Combustion Engineering, Inc., Mentor, Ohio) for testing and producing granulated neotame. The neotame powder flowed well into the feed hopper. […] The energy consumption of the rolls and feed screw were within the desired limits. The flakes were broken down into granular particles using a cone mill. The granulation was sieved to obtain a particle size that passed through 20 mesh and was retained on 60 mesh.

A short description of data set [2]: bulk density (loose), cup of known volume. The format is physicochemical. The settings on record: Example 2; granulation through 20 mesh, retained on 60 mesh, versus initial powder. The protocol:
In particular, bulk density (loose) was measured using a cup of known volume. The cup was filled with sample, excess was removed and the sample was weighed.

With `COC(=O)[C@H](Cc1ccccc1)NC(=O)[C@H](CC(=O)O)NCCC(C)(C)C` [neotame, N-[N-(3,3-dimethylbutyl)-L-α-aspartyl]-L-phenylalanine 1-methyl ester], in data set [1], the “degradation of neotame during granulation process” value is “no degradation”. Further, the bulk density in data set [2] is 0.4 g/cc.
